# In patent US12138256B2, “Treatment of cardiopulmonary disorders” (Bayer Aktiengesellschaft, priority 2021, dated 2024):
# Several values for one entry are separate records, joined by “and”; a condition that tells them apart may be missing. Equal entries are not always repeated.
# Tested on: thromboxane analog U46619 induced PAH in minipigs
# Assay: Haemodynamics (PAP, BP) in the anesthetized thromboxane challenged PAH minipig after inhaled (nebulized) application (C-2.1)
# Assay type: in vivo, Göttingen minipig
# Conditions: for BP % change vs. baseline / PAP % change vs. baseline: 100 μg/kg nominal dose, individual animals
# In short: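 Anesthetized, ventilated Göttingen minipigs (2-6 kg) given continuous infusion (0.3-0.75 μg/kg/min) to raise mean PAP above 25 mmHg, dosing starting after a 30 min plateau. Compound in 1% DMSO/0.2% citric acid, pH 8, nebulized via Aeroneb Pro into the inspiratory arm (~7 min; stock 300 μg/kg). PAP by Swan-Ganz catheter, BP via carotid catheter.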
# [1] = inhaled 30 μg/kg, 0 min vs. start inhalation
# [2] = inhaled 30 μg/kg, 10 min vs. start inhalation
# [3] = inhaled 30 μg/kg, 20 min vs. start inhalation
# [4] = inhaled 30 μg/kg, 30 min vs. start inhalation
# [5] = inhaled 30 μg/kg, 40 min vs. start inhalation
# [6] = inhaled 30 μg/kg, 50 min vs. start inhalation
# [7] = inhaled 30 μg/kg, 60 min vs. start inhalation
# [8] = inhaled 30 μg/kg, 70 min vs. start inhalation
# [9] = inhaled 30 μg/kg, 80 min vs. start inhalation
# [10] = inhaled 30 μg/kg, 90 min vs. start inhalation
# [11] = inhaled 30 μg/kg, 100 min vs. start inhalation
# [12] = inhaled 30 μg/kg, 110 min vs. start inhalation
# [13] = inhaled 30 μg/kg, 120 min vs. start inhalation
# [14] = inhaled 30 μg/kg, 130 min vs. start inhalation
# [15] = inhaled 30 μg/kg, 140 min vs. start inhalation
# [16] = inhaled 30 μg/kg, 150 min vs. start inhalation
# [17] = inhaled 30 μg/kg, 160 min vs. start inhalation
# [18] = inhaled 30 μg/kg, 170 min vs. start inhalation
# [19] = inhaled 30 μg/kg, 180 min vs. start inhalation
# [20] = inhaled 30 μg/kg, 190 min vs. start inhalation
# [21] = inhaled 30 μg/kg, 200 min vs. start inhalation
# [22] = inhaled 30 μg/kg, 210 min vs. start inhalation
# [23] = inhaled 30 μg/kg, 220 min vs. start inhalation
# [24] = inhaled 30 μg/kg, 230 min vs. start inhalation
# [25] = inhaled 30 μg/kg, 240 min vs. start inhalation
# [26] = inhaled 30 μg/kg, −5 min vs. start inhalation
structure (smiles),measurement,setting,value
"O=C(O)CCCCN(CCc1cc(F)ccc1OCc1ccc(-c2nc3cc(Cl)ccc3o2)cc1)C1CCCc2nc(C(=O)O)ccc21 (single isomer, unassigned) [comparative example 3, (5)-{(4-carboxybutyl)[2-(2-{[4-(5-chloro-1,3-benzoxazol-2-yl)benzyl]oxy}-5-fluorophenyl)ethyl]amino}-5,6,7,8-tetrahydroquinoline-2-carboxylic acid]",time of maximum effect on PAP,"after inhaled application (nebulization), comparative example 11 30 μg/kg, Cinaciguat 3 and 10 μg/kg, Riociguat 100 μg/kg, comparative example 3 30 μg/kg",30 min
same,duration of action (PAP decrease),"after inhaled application (nebulization), comparative example 11 30 μg/kg, Cinaciguat 3 and 10 μg/kg, Riociguat 100 μg/kg, comparative example 3 30 μg/kg, observation interval 240 min",120 min
same,% changes in BP vs baseline,[1],100% and 99%
same,% changes in PAP vs baseline,[1],100% and 99%
same,% changes in BP vs baseline,[2],98% and 93%
same,% changes in PAP vs baseline,[2],103% and 99%
same,% changes in BP vs baseline,[3],94% and 87%
same,% changes in PAP vs baseline,[3],103% and 97%
same,% changes in BP vs baseline,[4],95% and 84%
same,% changes in PAP vs baseline,[4],104% and 98%
same,% changes in BP vs baseline,[5],97% and 81%
same,% changes in PAP vs baseline,[5],105% and 95%
same,% changes in BP vs baseline,[6],98% and 86%
same,% changes in PAP vs baseline,[6],106% and 95%
same,% changes in BP vs baseline,[7],101% and 88%
same,% changes in PAP vs baseline,[7],108% and 94%
same,% changes in BP vs baseline,[8],103% and 88%
same,% changes in PAP vs baseline,[8],108% and 93%
same,% changes in BP vs baseline,[9],104% and 92%
same,% changes in PAP vs baseline,[9],110% and 96%
same,% changes in BP vs baseline,[10],106% and 95%
same,% changes in PAP vs baseline,[10],110% and 94%
same,% changes in BP vs baseline,[11],107% and 96%
same,% changes in PAP vs baseline,[11],111% and 93%
same,% changes in BP vs baseline,[12],109% and 100%
same,% changes in PAP vs baseline,[12],111% and 93%
same,% changes in BP vs baseline,[13],111% and 107%
same,% changes in PAP vs baseline,[13],112% and 95%
same,% changes in BP vs baseline,[14],111% and 104%
same,% changes in PAP vs baseline,[14],112% and 92%
same,% changes in BP vs baseline,[15],112% and 103%
same,% changes in PAP vs baseline,[15],113% and 93%
same,% changes in BP vs baseline,[16],112% and 107%
same,% changes in PAP vs baseline,[16],113% and 93%
same,% changes in BP vs baseline,[17],112% and 110%
same,% changes in PAP vs baseline,[17],112% and 92%
same,% changes in BP vs baseline,[18],113% and 108%
same,% changes in PAP vs baseline,[18],110% and 92%
same,% changes in BP vs baseline,[19],113% and 108%
same,% changes in PAP vs baseline,[19],112% and 93%
same,% changes in BP vs baseline,[20],113%
same,% changes in PAP vs baseline,[20],111% and 93%
same,% changes in BP vs baseline,[21],112% and 110%
same,% changes in PAP vs baseline,[21],110% and 93%
same,% changes in BP vs baseline,[22],112% and 109%
same,% changes in PAP vs baseline,[22],109% and 93%
same,% changes in BP vs baseline,[23],113%
same,% changes in PAP vs baseline,[23],109% and 96%
same,% changes in BP vs baseline,[24],111% and 112%
same,% changes in PAP vs baseline,[24],109% and 94%
same,% changes in BP vs baseline,[25],110% and 112%
same,% changes in PAP vs baseline,[25],109% and 94%
same,% changes in BP vs baseline,[26],99% and 96%
same,% changes in PAP vs baseline,[26],99%
same,lung selectivity with respect to the hemodynamic effect,"inhaled, 30 μg/kg",good lung selectivity
"O=C(O)c1ccc(CCN(CCc2cc(F)ccc2OCc2ccc(-c3nc4cc(Cl)ccc4o3)cc2)C2CCCc3nc(C(=O)O)ccc32)cc1 (single isomer, unassigned) [comparative example 4, 5-{[2-(4-Carboxyphenyl)ethyl][2-(2-{[4-(5-chloro-1,3-benzoxazol-2-yl)benzyl]oxy}-5-fluorophenyl)-ethyl]amino}-5,6,7,8-tetrahydroquinoline-2-carboxylic acid]",BP % change vs. baseline,"inhaled, time 80 min",101.1% and 101.2% and 101.0%
same,PAP % change vs. baseline,"inhaled, time 80 min",102.0% and 96.2% and 97.5%
same,BP % change vs. baseline,"inhaled, time 90 min",98.7% and 100.3% and 101.0%
same,PAP % change vs. baseline,"inhaled, time 90 min",100.2% (2×) and 102.2%
same,BP % change vs. baseline,"inhaled, time 100 min",101.1% and 100.3% and 98.3%
same,PAP % change vs. baseline,"inhaled, time 100 min",100.0% and 93.1% and 96.4%
same,BP % change vs. baseline,"inhaled, time 110 min",99.9% and 102.2% and 98.3%
same,PAP % change vs. baseline,"inhaled, time 110 min",97.2% and 88.9% and 89.8%
same,BP % change vs. baseline,"inhaled, time 120 min",101.1% and 101.2% and 101.9%
same,PAP % change vs. baseline,"inhaled, time 120 min",86.5% and 86.2% and 86.0%
same,BP % change vs. baseline,"inhaled, time 130 min",99.9% and 99.4% and 100.1%
same,PAP % change vs. baseline,"inhaled, time 130 min",77.5% and 78.6% and 84.6%
same,BP % change vs. baseline,"inhaled, time 140 min",99.9% and 99.4% and 100.1%
same,PAP % change vs. baseline,"inhaled, time 140 min",76.3% and 77.7% and 81.3%
same,BP % change vs. baseline,"inhaled, time 150 min",99.9% and 98.5% and 100.1%
same,PAP % change vs. baseline,"inhaled, time 150 min",77.3% and 75.0% and 78.7%
same,BP % change vs. baseline,"inhaled, time 160 min",99.9% and 96.7% and 99.2%
same,PAP % change vs. baseline,"inhaled, time 160 min",75.5% and 71.4% and 77.3%
same,BP % change vs. baseline,"inhaled, time 170 min",101.1% and 97.6% and 99.2%
same,PAP % change vs. baseline,"inhaled, time 170 min",72.1% and 71.9% and 75.1%
same,BP % change vs. baseline,"inhaled, time 180 min",102.3% and 95.8% and 99.2%
same,PAP % change vs. baseline,"inhaled, time 180 min",74.0% and 68.0% and 75.9%
same,BP % change vs. baseline,"inhaled, time 190 min",102.3% and 95.8% and 99.2%
same,PAP % change vs. baseline,"inhaled, time 190 min",74.5% and 65.0% and 77.1%
same,BP % change vs. baseline,"inhaled, time 200 min",102.3% and 94.0% and 99.2%
same,PAP % change vs. baseline,"inhaled, time 200 min",70.1% and 70.6% and 77.2%
same,BP % change vs. baseline,"inhaled, time 210 min",103.5% and 94.0% and 99.2%
same,PAP % change vs. baseline,"inhaled, time 210 min",70.8% and 65.6% and 76.8%
same,BP % change vs. baseline,"inhaled, time 220 min",105.9% and 95.8% and 98.3%
same,PAP % change vs. baseline,"inhaled, time 220 min",77.8% and 66.7% and 75.3%
same,BP % change vs. baseline,"inhaled, time 230 min",107.1% and 94.9% and 97.4%
same,PAP % change vs. baseline,"inhaled, time 230 min",82.5% and 71.3% and 73.9%
same,BP % change vs. baseline,"inhaled, time 240 min",107.1% and 94.0% and 97.4%
same,PAP % change vs. baseline,"inhaled, time 240 min",81.0% and 67.4% and 75.0%
same,BP % change vs. baseline,"inhaled, time 250 min",109.4% and 94.9% and 98.3%
same,PAP % change vs. baseline,"inhaled, time 250 min",79.0% and 72.2% and 75.0%
same,BP % change vs. baseline,"inhaled, time 260 min",107.1% and 94.9% and 98.3%
same,PAP % change vs. baseline,"inhaled, time 260 min",75.0% and 72.7% and 76.7%
same,BP % change vs. baseline,"inhaled, time 270 min",107.1% and 94.9% and 97.4%
same,PAP % change vs. baseline,"inhaled, time 270 min",70.3% and 71.1% and 78.4%
same,BP % change vs. baseline,"inhaled, time 280 min",107.1% and 94.9% and 99.2%
same,PAP % change vs. baseline,"inhaled, time 280 min",65.8% and 75.6% and 79.7%
same,BP % change vs. baseline,"inhaled, time 290 min",107.1% and 94.0% and 98.3%
same,PAP % change vs. baseline,"inhaled, time 290 min",68.3% and 73.4% and 79.9%
same,BP % change vs. baseline,"inhaled, time 300 min",107.1% and 94.9% and 99.2%
same,PAP % change vs. baseline,"inhaled, time 300 min",69.1% and 76.2% and 79.6%
same,BP % change vs. baseline,"inhaled, time 310 min",107.1% and 94.9% and 98.3%
same,PAP % change vs. baseline,"inhaled, time 310 min",62.8% and 79.9% and 79.5%
same,BP % change vs. baseline,"inhaled, time 320 min",104.7% and 94.9% and 99.2%
same,PAP % change vs. baseline,"inhaled, time 320 min",61.8% and 76.5% and 81.3%
same,BP % change vs. baseline,"inhaled, time 330 min",107.1% and 94.0% and 101.0%
same,PAP % change vs. baseline,"inhaled, time 330 min",63.1% and 77.9% and 83.3%
same,lung selectivity,"inhaled, nominal dose of 100 μg/kg",good lung selectivity
"O=C(O)CCCCN(CCc1ccccc1OCc1ccc(CCc2ccccc2)cc1)Cc1ccc(C(=O)O)cc1 [comparative example 1, 4-[((4Carboxybutyl)-{2-[(4-phenethylbenzyl)oxy]phenethyl}amino)methyl]benzoic acid]",% changes in BP vs baseline,"inhaled 10 μg/kg, 0 min vs. start inhalation, listed as Cinaciguat",100% and 101%
same,% changes in BP vs baseline,"inhaled 10 μg/kg, 10 min vs. start inhalation, listed as Cinaciguat",89% and 86%
same,% changes in BP vs baseline,"inhaled 10 μg/kg, 20 min vs. start inhalation, listed as Cinaciguat",83% and 82%
same,% changes in BP vs baseline,"inhaled 10 μg/kg, 30 min vs. start inhalation",82%
same,% changes in BP vs baseline,"inhaled 10 μg/kg, 40 min vs. start inhalation",84%
same,% changes in BP vs baseline,"inhaled 10 μg/kg, 50 min vs. start inhalation, listed as Cinaciguat",87% and 85%
same,% changes in BP vs baseline,"inhaled 10 μg/kg, 60 min vs. start inhalation, listed as Cinaciguat",91% and 87%
same,% changes in BP vs baseline,"inhaled 10 μg/kg, 70 min vs. start inhalation, listed as Cinaciguat",94% and 88%
same,% changes in BP vs baseline,"inhaled 10 μg/kg, 80 min vs. start inhalation, listed as Cinaciguat",95% and 90%
same,% changes in BP vs baseline,"inhaled 10 μg/kg, 90 min vs. start inhalation, listed as Cinaciguat",99% and 92%
same,% changes in BP vs baseline,"inhaled 10 μg/kg, −5 min vs. start inhalation, listed as Cinaciguat",100% and 99%
